Literature values in article PMC4704022, “Insights on FXR selective modulation. Speculation on bile acid chemical space in the discovery of potent and selective agonists” (Scientific Reports, 2016).

Columns and labels:
FXR [1] = tested on: FXR; design: method as in PMID 10360171; conditions: cited from earlier work
OSTα expression = tested on: OSTα expression; design: method as in PMID 25247751; conditions: compared with 6-ECDCA; cited from earlier work
FXR [2] = tested on: FXR; design: method as in PMID 25247751; conditions: read-out: EC50, FXR transactivation; cited from earlier work

SMILES | FXR ligand strength relative to CDCA (in words) (FXR [1]) | Potency in inducing expression of OSTα (in words) (OSTα expression) | EC50 (FXR [2]) [µM]
C[C@H](CCC(=O)O)[C@H]1CC[C@H]2[C@@H]3CC[C@@H]4C[C@H](O)CC[C@]4(C)[C@H]3CC[C@]12C [lithocholic acid] | weaker natural ligands | – | –
C[C@H](CCCOS(=O)(=O)O)[C@H]1CCC2C3C(CC[C@@]21C)[C@@]1(C)CCCC[C@H]1C[C@H]3O (stereo partly drawn) [compound 5, 7α-hydroxy-5β-cholan-24-sulfate] | – | comparable to that of 6-ECDCA | ~9
